# Test results as given in PubChem BioAssay (NCI).
#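 Briefly, cells in 96-well plates were exposed to five compound concentrations for 48 h, and endpoints were estimated by linear interpolation. GI50 = concentration required for 50% inhibition of growth. Definition used: TGI = concentration required for complete inhibition of growth.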
# What was measured:
# Test in all cases: NCI-60 cell line screen, 48 h
# [1] = test system: NCI/ADR-RES ovarian
# [2] = test system: HS 578T breast
# [3] = test system: KM12 colon
# [4] = test system: NCI-H226 lung
# [5] = test system: HCT-116 colon
# [6] = test system: MOLT-4 leukemia
# [7] = test system: UACC-62 melanoma
# [8] = test system: HCT-15 colon
# [9] = test system: U251 CNS
# [10] = test system: SK-MEL-5 melanoma
# [11] = test system: UACC-257 melanoma
# [12] = test system: COLO 205 colon
# [13] = test system: 786-0 renal
# [14] = test system: MCF7 breast
# [15] = test system: SNB-19 CNS
# [16] = test system: OVCAR-4 ovarian
# [17] = test system: DU-145 prostate
# [18] = test system: SW-620 colon
# [19] = test system: CCRF-CEM leukemia
# [20] = test system: NCI-H23 lung
# [21] = test system: HOP-62 NSCLC
# [22] = test system: OVCAR-8 ovarian
# [23] = test system: NCI-H460 lung
# [24] = test system: HCC-2998 colon
# [25] = test system: SF-295 CNS
# [26] = test system: EKVX NSCLC
# [27] = test system: SR leukemia
# [28] = test system: TK-10 renal
# [29] = test system: MALME-3M melanoma
# [30] = test system: MDA-MB-231 breast
# [31] = test system: HL-60(TB) leukemia
# [32] = test system: SK-MEL-28 melanoma
# [33] = test system: LOX IMVI melanoma
# [34] = test system: UO-31 renal
# [35] = test system: HOP-92 NSCLC
# [36] = test system: OVCAR-5 ovarian
# [37] = test system: MDA-MB-435
# [38] = test system: PC-3 prostate
# [39] = test system: MDA-N
# [40] = test system: RXF 393 renal
# [41] = test system: SN12C renal
# [42] = test system: SF-268 CNS
# [43] = test system: M14 melanoma
# [44] = test system: A498 renal
# [45] = test system: K-562 leukemia
# [46] = test system: ACHN renal
# [47] = test system: OVCAR-3 ovarian
# [48] = test system: RPMI-8226 leukemia
# [49] = test system: SF-539 CNS
# [50] = test system: HT29 colon
# [51] = test system: SK-OV-3 ovarian
# [52] = test system: SK-MEL-2 melanoma
# [53] = test system: A549 NSCLC
# [54] = test system: T-47D breast
# [55] = test system: CAKI-1 renal
# [56] = test system: IGROV1 ovarian
# [57] = test system: SNB-75 CNS
# [58] = test system: NCI-H522 lung
# [59] = test system: BT-549 breast
smiles,measurement,setting,value
Cc1nc2c([nH]c1C)c(O)cc1c3c(nc12)C(=O)CCC3,TGI,[1],> 100 µM
same,TGI,[2],83 µM
same,TGI,[3],> 100 µM
same,TGI,[4],> 100 µM
same,TGI,[5],> 100 µM
same,TGI,[6],> 100 µM
same,TGI,[7],52.6 µM
same,TGI,[8],> 100 µM
same,TGI,[9],20.9 µM
same,TGI,[10],> 100 µM
same,TGI,[11],> 100 µM
same,TGI,[12],5.99 µM
same,TGI,[13],> 100 µM
same,TGI,[14],4.35 µM
same,TGI,[15],> 100 µM
same,TGI,[16],45.4 µM
same,TGI,[17],> 100 µM
same,TGI,[18],> 100 µM
same,TGI,[19],> 100 µM
same,TGI,[20],> 100 µM
same,TGI,[21],> 100 µM
same,TGI,[22],8.25 µM
same,TGI,[23],> 100 µM
same,TGI,[24],7.88 µM
same,TGI,[25],90.8 µM
same,TGI,[26],> 100 µM
same,TGI,[27],8.77 µM
same,TGI,[28],26.3 µM
same,TGI,[29],> 100 µM
same,TGI,[30],> 100 µM
same,TGI,[31],> 100 µM
same,TGI,[32],> 100 µM
same,TGI,[33],> 100 µM
same,TGI,[34],84.2 µM
same,TGI,[35],> 100 µM
same,TGI,[36],> 100 µM
same,TGI,[37],2.05 µM
same,TGI,[38],> 100 µM
same,TGI,[39],3.1 µM
same,TGI,[40],3.68 µM
same,TGI,[41],> 100 µM
same,TGI,[42],96.2 µM
same,TGI,[43],> 100 µM
same,TGI,[44],> 100 µM
same,TGI,[45],> 100 µM
same,TGI,[46],> 100 µM
same,TGI,[47],7.31 µM
same,TGI,[48],7.05 µM
same,TGI,[49],13.6 µM
same,TGI,[50],11.7 µM
same,TGI,[51],38.1 µM
same,TGI,[52],8.92 µM
same,TGI,[53],14.1 µM
CN(C)c1ccc(/C=c2/c3ccccc3n3c2cc(-c2ccc(Cl)cc2)[n+]3C)cc1,TGI,[1],> 89.3 µM
same,TGI,[3],0.264 µM
same,TGI,[4],1.68 µM
same,TGI,[6],> 100 µM
same,TGI,[54],1.38 µM
same,TGI,[9],1.09 µM
same,TGI,[10],0.362 µM
same,TGI,[11],1.08 µM
same,TGI,[12],0.211 µM
same,TGI,[15],1.33 µM
same,TGI,[16],2.51 µM
same,TGI,[17],1.13 µM
same,TGI,[18],1.31 µM
same,TGI,[21],1.48 µM
same,TGI,[55],0.782 µM
same,TGI,[23],0.656 µM
same,TGI,[24],1.95 µM
same,TGI,[25],1.77 µM
same,TGI,[26],2.41 µM
same,TGI,[32],1.9 µM
same,TGI,[36],2.33 µM
same,TGI,[37],1.18 µM
same,TGI,[38],1.01 µM
same,TGI,[39],1.23 µM
same,TGI,[44],3.45 µM
same,TGI,[46],1.46 µM
same,TGI,[47],1.34 µM
same,TGI,[48],0.566 µM
same,TGI,[49],0.748 µM
same,TGI,[51],1.45 µM
same,TGI,[52],0.845 µM
same,TGI,[53],1.87 µM
O=C1C(=O)c2c(O)ccc(O)c2C(O)=C1Cl,TGI,[1],> 100 µM
same,TGI,[3],> 100 µM
same,TGI,[5],> 100 µM
same,TGI,[54],> 100 µM
same,TGI,[7],> 100 µM
same,TGI,[8],> 100 µM
same,TGI,[9],> 100 µM
same,TGI,[10],> 100 µM
same,TGI,[11],> 100 µM
same,TGI,[12],> 100 µM
same,TGI,[13],> 100 µM
same,TGI,[14],> 100 µM
same,TGI,[15],> 100 µM
same,TGI,[16],> 100 µM
same,TGI,[17],> 100 µM
same,TGI,[18],> 100 µM
same,TGI,[19],> 100 µM
same,TGI,[20],> 100 µM
same,TGI,[21],> 100 µM
same,TGI,[22],> 100 µM
same,TGI,[55],> 100 µM
same,TGI,[23],> 100 µM
same,TGI,[24],> 100 µM
same,TGI,[25],> 100 µM
same,TGI,[26],> 100 µM
same,TGI,[27],> 100 µM
same,TGI,[28],> 100 µM
same,TGI,[29],78.3 µM
same,TGI,[30],> 100 µM
same,TGI,[31],> 100 µM
same,TGI,[32],> 100 µM
same,TGI,[34],> 100 µM
same,TGI,[35],> 100 µM
same,TGI,[36],> 100 µM
same,TGI,[56],> 100 µM
same,TGI,[38],> 100 µM
same,TGI,[39],> 100 µM
same,TGI,[40],> 100 µM
same,TGI,[42],> 100 µM
same,TGI,[43],> 100 µM
same,TGI,[57],> 100 µM
same,TGI,[44],> 100 µM
same,TGI,[45],> 100 µM
same,TGI,[47],> 100 µM
same,TGI,[48],> 100 µM
same,TGI,[49],> 100 µM
same,TGI,[50],> 100 µM
same,TGI,[53],> 100 µM
C/C=C(\C)C(=O)O[C@H]1C=CC(=O)O[C@H]1CC[C@H](O)[C@H](C)O,GI50,[1],15.3 µM
same,TGI,[1],34 µM
same,GI50,[2],6.8 µM
same,TGI,[2],18.1 µM
same,GI50,[3],12.4 µM
same,TGI,[3],29.1 µM
same,GI50,[4],4.14 µM
same,TGI,[4],16.6 µM
same,GI50,[5],1.38 µM
same,TGI,[5],2.82 µM
same,GI50,[6],0.522 µM
same,TGI,[6],5.59 µM
same,GI50,[54],2.34 µM
same,TGI,[54],10.8 µM
same,GI50,[7],6.42 µM
same,TGI,[7],17.3 µM
same,GI50,[8],3.41 µM
same,TGI,[8],12.7 µM
same,GI50,[9],4.64 µM
same,TGI,[9],17.4 µM
same,GI50,[10],5.13 µM
same,TGI,[10],11 µM
same,GI50,[11],16.4 µM
same,TGI,[11],34.2 µM
same,GI50,[12],3.22 µM
same,TGI,[12],10.1 µM
same,GI50,[13],5.46 µM
same,TGI,[13],12.8 µM
same,GI50,[14],2.45 µM
same,TGI,[14],11.3 µM
same,GI50,[15],12.3 µM
same,TGI,[15],26.4 µM
same,GI50,[16],6.42 µM
same,TGI,[16],20.7 µM
same,GI50,[17],13.8 µM
same,TGI,[17],27 µM
same,GI50,[18],2.64 µM
same,TGI,[18],6.08 µM
same,TGI,[19],0.335 µM
same,GI50,[20],15.7 µM
same,TGI,[20],34.2 µM
same,GI50,[21],15.3 µM
same,TGI,[21],29.7 µM
same,GI50,[22],12.8 µM
same,TGI,[22],30.7 µM
same,GI50,[55],7.12 µM
same,TGI,[55],13.1 µM
same,GI50,[23],11.6 µM
same,TGI,[23],25.4 µM
same,GI50,[58],2.05 µM
same,TGI,[58],6.13 µM
same,GI50,[24],12.3 µM
same,TGI,[24],26.3 µM
same,GI50,[25],13 µM
same,TGI,[25],26.5 µM
same,GI50,[26],15.8 µM
same,TGI,[26],30.5 µM
same,GI50,[27],15.1 µM
same,TGI,[27],45.7 µM
same,GI50,[28],9.78 µM
same,TGI,[28],23.9 µM
same,GI50,[29],4.62 µM
same,TGI,[29],16.1 µM
same,GI50,[30],12.8 µM
same,TGI,[30],28.3 µM
same,GI50,[31],0.469 µM
same,TGI,[31],4.77 µM
same,GI50,[32],2.85 µM
same,TGI,[32],8.05 µM
same,GI50,[33],2.24 µM
same,TGI,[33],5.66 µM
same,GI50,[34],9.06 µM
same,TGI,[34],23.5 µM
same,GI50,[35],6.3 µM
same,TGI,[35],16.1 µM
same,GI50,[36],16.9 µM
same,TGI,[36],32.1 µM
same,GI50,[37],3.43 µM
same,TGI,[37],12.7 µM
same,GI50,[56],4.17 µM
same,TGI,[56],19 µM
same,GI50,[38],8.46 µM
same,TGI,[38],22.7 µM
same,GI50,[40],2 µM
same,TGI,[40],5.4 µM
same,GI50,[41],8.06 µM
same,TGI,[41],25.3 µM
same,GI50,[42],2.83 µM
same,TGI,[42],12.3 µM
same,GI50,[43],6.82 µM
same,TGI,[43],21.9 µM
same,GI50,[57],8.98 µM
same,TGI,[57],22.7 µM
same,GI50,[44],16.4 µM
same,TGI,[44],30.3 µM
same,GI50,[45],2.3 µM
same,TGI,[45],8.72 µM
same,GI50,[46],6.42 µM
same,TGI,[46],19.7 µM
same,GI50,[47],3.06 µM
same,TGI,[47],8.79 µM
same,GI50,[48],2.22 µM
same,TGI,[48],7.54 µM
same,GI50,[59],6.14 µM
same,TGI,[59],19.9 µM
same,GI50,[49],13.3 µM
same,TGI,[49],27.1 µM
same,GI50,[50],2.38 µM
same,TGI,[50],6.65 µM
same,GI50,[51],16.2 µM
same,TGI,[51],31 µM
same,GI50,[52],8.41 µM
same,TGI,[52],27.9 µM
same,GI50,[53],18 µM
same,TGI,[53],36.3 µM
